Key:
PDCs = assay: Colony forming assay, patient-derived tumor cells; assay type: cell-based, human
Method: (§1) Colony forming assay: for the colony forming assay, A375 and B16-F10 cells are seeded on 6-well plates with the density of 500-1000 cells. After two weeks, staining is performed by using 1% crystal violet at room temperature, rinsing is performed with PBS and tap water, and the number of colonies is counted.
Preparation of patient-derived tumor cells: tumor tissues of PDXs are used in basic RPMI1640 medium (Gibco, USA. Free-FBS medium). Patient-derived tumor cells (PDC) are prepared from cryopreserved xenograft fragments using the tumor isolation kit (Miltenyi Biotec, Germany), following the tumor treatment solution. PDCs are cultured as described by Bruna and Shanker et al. (6,7). PDCs are used for colony forming assays.

PBX1 [1] = assay: PBX1 mRNA and protein levels by qRT-PCR and western blot in B16-F10 cells; assay type: cell-based, mouse
Method: (§2) RNA extraction and quantitative RT-PCR detection: total RNA is extracted from cultured cells by using TRIzol (Invitrogen, USA), then is converted into cDNA by SuperScript III First-Strand Synthesis SuperMix (Invitrogen, USA). qRT-PCR detection is performed by using SYBR Green®Mix (Invitrogen, USA) in ABI 7500 (Invitrogen, USA). A relative expression quantity of RNA is calculated by using a comparative CT method.
(§3) Immunoblotting: for protein analysis of a whole-cell lysate, cells are lysed with RIPA (CWBIO, Beijing, China) buffer solution. For tumors, liquid nitrogen is first used to pulverize tissues. Then, the lysate is generated on ice with the RIPA (CWBIO, Beijing, China) buffer solution for 20 minutes, and then centrifuged at 4° C., 13000 rpm for 15 minutes. Protein-containing supernatant is transferred to the fresh microcentrifuge tube, and stored at −20° C. (short-term storage) for subsequent use. The protein is quantified by using the BIO-RAD DC protein assay. The total proteins are electrophoresed on SDS-polyacrylamide gels. Then, the proteins are transferred to polyvinylidene difluoride (PVDF) membrane. After incubation with the primary antibody overnight on the shaker at 4° C., the membrane is washed 6 times (5 minutes each time) with TBS-T (Invitrogen, USA). Then, blots are incubated with horseradish peroxidase (IRP)-conjugated secondary antibodies for 60 minutes at RT on the plate shaker. The membrane is cleaned by TBS-T (6×5 minutes). Detection on immunoreactive bands is performed by using SuperSignalmWest Pico chemiluminescence substrate kit (Thermo Fisher Scientific, USA) and Western blotting detection system (BioRad, USA). GAPDH is used as the loading control for western blotting. The intensity levels of the bands are normalized to GAPDH.

PBX1 [2] = assay: PBX1 mRNA and protein levels by qRT-PCR and western blot in A375 cells; assay type: cell-based, human
Method: as §2, §3

[3] = tested on: patient-derived melanoma xenograft (PDX); assay: PDX model of melanoma in NCG mice; assay type: in vivo
Method: PDX model of melanoma: fresh tumor tissues are collected immediately after surgery, placed in RPMI 1640 medium containing penicillin/streptomycin (100 U/ml; 100 μg/ml), fungal zone (1 μg/ml) and Genta Mycin (50 μg/ml) (all from Gibco, USA) (4,5). According to the institutional review and the ethical guidelines for this study approved by the Ethics Committee of the Second Hospital of Jilin University, fresh tumor samples from patients suffering from melanoma are collected for transplantation with informed consent. The mice were kept and all procedures are performed under the approval and supervision of the Institutional Animal Care and Use Committee (IACUC) of the School of Public Health of Jilin University (Changchun, China). Necrotic tissues are excised before transplantation, and tumor tissues are minced to a size of 2×2×2 mm^3, and implanted subcutaneously in the flank of 6-week-old NCG male mice to generate first-generation (F1) PDX mice. Successfully transplanted tumor models are passaged and stored using standard methods. H&E staining is used to evaluate the morphology of patient tumor specimens and xenografts of established PDX models. Treatment with ASO Scr or ASO (intravenous injection, 20 mg/kg) is initiated when the tumor volume of the mice reached 220-280 mm^3. Tumor growth and body weight measurements are performed. Tumors are dissected at the end of treatment for further processing for RNA, protein and histological analysis.
Control:mG*mT*mC*mC*mA*mC*mA*mA*mA*mC*mA*mC*mA*mA*mC*mT*mC* mC*mT*mG*). […] This example also establishes short-term cultures of patient-derived melanoma xenograft (PDX)-derived tumor cells (PDCs) (FIG. 5D). […] To further expand the analysis, this embodiment establishes the PDX model of melanoma, and […] is administered intravenously (intravenous injection) every two days for 21 days.

PBX1 transcript = assay: BG4 RNA immunoprecipitation (RIP) followed by qRT-PCR in A375 cells; assay type: cell-based, human
Method: FIGS. 2A-2G are features formed by dG1 and rG1 in vitro and in cells. In (FIG. 2A), Left: CD spectra of WT and Mut dG1, and Right: CD spectra of WT and Mut rG1. CD is circular dichroism. In (FIG. 2B), Left: gel mobility assay of WT and Mut dG1, and Right: gel mobility assay of WT and Mut rG1. In (FIG. 2C), under specified conditions, fluorescence-on assay of NMM in absence of presence of dG1 or rG1, and their G/A mutant. In (FIG. 2D), the occupancy of BG4 in the PBX1 promoter region is measured in A375 cells by BG4 chromatin immunoprecipitation (ChIP), followed by qRT-PCR. In (FIG. 2E), RNA immunoprecipitation (RIP) detection is performed to show the association between BG4 and the PBX1 transcript in A375 cells, followed by qRT-PCR. In (FIG. 2F), the occupancy of BG4 in the PBX1 promoter region is measured, by the BG4 chip, in A375 cells treated with or without PDS and TMPyP4, followed by qRT-PCR. […] SEM represents the standard error of mean. *P< 0.05, **P< 0.01***P< 0.001.
In this embodiment, several methods are further employed to verify the formation of dG1 and rG1. First, circular dichroism (CD) is used to examine the molar ellipticity of dG1 and rG1 sequences (33 nt) and mutants thereof, and the mutants are designed to eliminate G4 formation. […] N-methyl mesoporphyrin IX (NMN) is the well-known fluorescent G4-specific ligand that can be used for studies of G4 formation in vitro. Both dG1 and rG1 are found to enhance the fluorescence of N N (FIG. 2C). In addition, in this embodiment, chromatin immunoprecipitation (ChIP) and RNA immunoprecipitation (RIP) detection are performed in A375 cells using the well-known G4-specific antibody BG4. […] In summary, dG1 and rG1 can fold stable G4 structures in vitro and in cells. […] Therefore, the ability of these G4-specific ligands to interact with PBX1 G4s is investigated next.
Control:mG*mT*mC*mC*mA*mC*mA*mA*mA*mC*mA*mC*mA*mA*mC*mT*mC* mC*mT*mG*). […] This example also establishes short-term cultures of patient-derived melanoma xenograft (PDX)-derived tumor cells (PDCs) (FIG. 5D). […]

melanoma cell line = assay: Proliferation, migration and invasion of the melanoma cell line (summary statement); assay type: cell-based
Source text: The present invention detects the effect of PBX1-G4 on growth and lung metastasis of melanoma and discovers that the expression of PBX1 is positively correlated with the development of melanoma. The sequence of PBX1 is conserved in evolution and is same in mice and human beings. […] The identification of the present invention on the antisense oligonucleotide targeting the PBX1 promoter region G-quadruplex provides the new drug target and new treatment methods and ideas for development of the new generation of medicine for treating melanoma.

A375 cells = assay: Colony forming assay, A375; assay type: cell-based, human
Method: as §1

B16-F10 cells = assay: In vivo tumor metastasis assay, B16-F10 tail vein injection; design: species or system mice; details: in vivo studies, summary statement
Method: In vivo tumor metastasis assay: 2×10^5 B16-F10 cells are injected into the tail vein of tail vein tumor. According to solutions formulated by the NCI Animal Care and Use Committee, metastatic endpoints are determined for each experiment by maximal primary tumor burden and/or appearance of moribund mice in all treatment groups. PDS (5 mg/kg) is administered twice a day, for 16 consecutive days.
Bioluminescent tumor cell tracking: in vivo whole-animal imaging, anesthetized mice are injected intraperitoneally with 3 mg of d-luciferin (MCE, USA). Luminescence data is collected on an IVIS system (Perkin Elmer, USA). For live tissue imaging, tissues are perfused with PBS, harvested, and incubated in PBS with 1 μg/ml-1d-luciferin. Data analysis is performed using an IVIS Image software package.

[4] = western blot, normalized to GAPDH
[5] = PDX, intravenous injection 20 mg/kg every two days for 21 days, vs PBX1 ASO scramble

ASO: ASO specific for the complementary sequence of rG1 in the 5′ UTR of PBX1: mG*mG*mG*G*T*mT*mG*mC*mG*mG*mG*mG*mT*mG*mA*G*G*G*T*mG* (antisense GGGGTTGCGGGGTGAGGGTG; chemistry not given here)
colony formation ability (PDCs): decreases
mRNA level of PBX1 (PBX1 [1]; qRT-PCR): effectively reduce
protein level of PBX1 (PBX1 [1]; [4]): effectively reduce
mRNA level of PBX1 (PBX1 [2]; qRT-PCR): effectively reduce
protein level of PBX1 (PBX1 [2]; [4]): effectively reduce
expression of proliferation marker Ki67 in tumors ([3]; PDX): significant downregulation
tumor growth [3, 5]: significant reduction
tumor weight [3, 5]: significant reduction
expression of PBX1 in tumors ([3]; PDX, qRT-PCR and IHC staining): significant downregulation
growth of melanoma ([3]; in vivo studies, summary statement): almost completely inhibits
PBX1 transcript pulled down by BG4 (PBX1 transcript): increases
invasion capability of the melanoma cell line (melanoma cell line): obviously inhibits
migration capability of the melanoma cell line (melanoma cell line): obviously inhibits
proliferation capability of the melanoma cell line (melanoma cell line): obviously inhibits
colony formation (A375 cells): decreases
lung metastasis of melanoma (B16-F10 cells): almost completely inhibits

Source: patent US20240076667A1, “APPLICATION OF ANTISENSE OLIGONUCLEOTIDE TARGETING PBX1 PROMOTER REGION G-QUADRUPLEX IN PREPARATION OF MEDICINE FOR TREATING MELANOMA” (JILIN UNIVERSITY, priority 2022, published 2024)
